Patent publication US8586743B2, “Labeling reagents and methods of their use” (Life Technologies Corporation, priority 2007, dated 2013)

Tests used:
[1] = Hydrolysis half-life by HPLC (percent hydrolysis) at room temperature
Method: (§1) Samples were incubated at room temperature in the indicated solution.
(§2) 2-(6-amino-3-iminio-4,5-disulfonato-3H-xanthen-9-yl)benzoate, comprising an SDP ester was prepared and compared to commercially available 2-(6-amino-3-iminio-4,5-disulfonato-3H-xanthen-9-yl)benzoate comprising a succinimidyl ester (SE) and 2-(6-amino-3-iminio-4,5-disulfonato-3H-xanthen-9-yl)benzoate comprising a TFP for hydrolytic stability in 25 mM Pi buffer pH 8.6.

[2] = buffer, pH 8.6
Method: as §1, §2

[3] = phosphate buffer with imidazole, pH 8.6

Row | half-life ([1]; DMSO) | half-life ([1]; HEPES buffer, pH 8.2) | half-life ([1]; Tris buffer with NaN3, pH 8.6) | half-life ([1]; Tris buffer, pH 7) | half-life ([1]; Tris buffer, pH 8.6) | half-life ([1]; borate buffer, pH 8.6) | half-life [1, 3] | half-life ([1]; phosphate buffer, pH 7.2) | half-life ([1]; phosphate buffer, pH 8.6) | half-life ([1]; water) | half-life (hydrolytic stability) [2] | Structure (SMILES)
1 | 384 h | 159 h | 1.58 h | 1020 h | 77 h | 3.5 h | 0.633 h | 245 h | 28 h | 504 h | 28 h | N=c1ccc2c(-c3ccc(C(=O)Oc4c(Cl)cc(S(=O)(=O)O)cc4Cl)cc3C(=O)O)c3ccc(N)c(S(=O)(=O)O)c3oc-2c1S(=O)(=O)O [Compound 102]
2 | – | – | – | – | – | – | – | – | 1.7 h | – | – | CC1(C)C(/C=C/C=C/C=C2\N(CCCS(=O)(=O)O)c3ccc(S(=O)(=O)[O-])cc3C2(C)CCCCCC(=O)Oc2c(Cl)cc(S(=O)(=O)O)cc2Cl)=[N+](CCCS(=O)(=O)O)c2ccc(S(=O)(=O)O)cc21 (stereo not shown) [Compound 114]
3 | – | – | – | – | – | – | – | – | 1.75 h | – | – | CC1(C)C(/C=C/C=C/C=C2\N(CCCS(=O)(=O)O)c3ccc(S(=O)(=O)[O-])cc3C2(C)CCCCCC(=O)ON2C(=O)CCC2=O)=[N+](CCCS(=O)(=O)O)c2ccc(S(=O)(=O)O)cc21 (stereo not shown) [Compound 121, reference compound]
4 | – | – | – | – | – | – | – | – | 17 h | – | – | N=c1ccc2c(-c3cc(C(=O)Oc4c(Cl)cc(S(=O)(=O)O)cc4Cl)ccc3C(=O)O)c3ccc(N)c(S(=O)(=O)O)c3oc-2c1S(=O)(=O)O [Compound 104]
5 | – | 6.5 h | < 0.0167 h | 13.9 h | 2.32 h | < 0.0833 h | < 0.0333 h | 2.88 h | 1.3 h | – | – | N=c1ccc2c(-c3ccc(C(=O)Oc4c(F)c(F)cc(F)c4F)cc3C(=O)O)c3ccc(N)c(S(=O)(=O)O)c3oc-2c1S(=O)(=O)O [Compound 120, reference compound]
